Assays:
[1] = Boiling temperature at pressure P; conditions: 101.3 kPa; Liquid; ebulliometry
[2] = 303.1 K; 101.33 kPa; Liquid; pycnometer
[3] = excess molar enthalpy (molar enthalpy of mixing); xn = mol fraction of the nth substance listed; conditions: 298.15 K, 101.3 kPa, Liquid

CC(Cl)(Cl)Cl [1,1,1-trichloroethane]
Conditions | Boiling temperature at pressure P [°C] | mass density [kg/m3]
[1] | 74.20 | –
[2] | – | 1320.94

CC(Cl)(Cl)Cl [1,1,1-trichloroethane] + CN1CCCC1=O
[3]
Conditions | excess molar enthalpy [kcal/mol]
x1 = 0.0303 | -0.0145
x1 = 0.0662 | -0.0323
x1 = 0.1039 | -0.0497
x1 = 0.1525 | -0.0702
x1 = 0.2006 | -0.0895
x1 = 0.2534 | -0.106
x1 = 0.3046 | -0.122
x1 = 0.3555 | -0.133
x1 = 0.4018 | -0.139
x1 = 0.4556 | -0.139
x1 = 0.5054 | -0.139
x1 = 0.5576 | -0.137
x1 = 0.6104 | -0.141
x1 = 0.6634 | -0.141
x1 = 0.7153 | -0.135
x1 = 0.7694 | -0.122
x1 = 0.8172 | -0.117
x1 = 0.8714 | -0.103
x1 = 0.9228 | -0.0783
x1 = 0.9649 | -0.0437

ClC(Cl)C(Cl)Cl [1,1,2,2-tetrachloroethane]
Conditions | Boiling temperature at pressure P [°C] | mass density [kg/m3]
[1] | 146.20 | –
[2] | – | 1578.58

ClC(Cl)C(Cl)Cl [1,1,2,2-tetrachloroethane] + CN1CCCC1=O
[3]
Conditions | excess molar enthalpy [kcal/mol]
x1 = 0.0331 | -0.113
x1 = 0.0582 | -0.205
x1 = 0.0765 | -0.256
x1 = 0.1279 | -0.426
x1 = 0.1292 | -0.413
x1 = 0.1796 | -0.555
x1 = 0.2318 | -0.704
x1 = 0.2344 | -0.695
x1 = 0.288 | -0.838
x1 = 0.3219 | -0.893
x1 = 0.34 | -0.963
x1 = 0.4028 | -1.01
x1 = 0.4675 | -1.09
x1 = 0.5226 | -1.14
x1 = 0.5688 | -1.16
x1 = 0.5953 | -1.16
x1 = 0.6265 | -1.09
x1 = 0.6815 | -1
x1 = 0.7384 | -0.89
x1 = 0.7933 | -0.742
x1 = 0.8536 | -0.533
x1 = 0.9099 | -0.354
x1 = 0.9574 | -0.179

ClCCCl [1,2-dichloroethane]
Conditions | Boiling temperature at pressure P [°C] | mass density [kg/m3]
[1] | 83.80 | –
[2] | – | 1238.3

ClCCCl [1,2-dichloroethane] + CN1CCCC1=O
[3]
Conditions | excess molar enthalpy [kcal/mol]
x1 = 0.0658 | -0.0565
x1 = 0.1316 | -0.11
x1 = 0.1959 | -0.159
x1 = 0.2633 | -0.205
x1 = 0.331 | -0.248
x1 = 0.3947 | -0.282
x1 = 0.4525 | -0.301
x1 = 0.592 | -0.267
x1 = 0.6421 | -0.246
x1 = 0.6925 | -0.217
x1 = 0.7469 | -0.194
x1 = 0.8024 | -0.162
x1 = 0.856 | -0.123
x1 = 0.9111 | -0.0802
x1 = 0.9608 | -0.0403

CN1CCCC1=O [N-methylpyrrolidone]
Conditions | Boiling temperature at pressure P [°C] | mass density [kg/m3]
[1] | 202.30 | –
[2] | – | 1023.4

ClC(Cl)=C(Cl)Cl [tetrachloroethene]
Conditions | Boiling temperature at pressure P [°C] | mass density [kg/m3]
[1] | 121.00 | –
[2] | – | 1606.4

ClC(Cl)=C(Cl)Cl [tetrachloroethene] + CN1CCCC1=O
[3]
Conditions | excess molar enthalpy [kcal/mol]
x1 = 0.039 | -0.00239
x1 = 0.0887 | -0.00292
x1 = 0.1357 | -0.0012
x1 = 0.2415 | 0.007
x1 = 0.2932 | 0.0137
x1 = 0.3454 | 0.0214
x1 = 0.536 | 0.0623
x1 = 0.6006 | 0.0709
x1 = 0.6688 | 0.0803
x1 = 0.742 | 0.0775
x1 = 0.813 | 0.0706
x1 = 0.8822 | 0.0566
x1 = 0.9441 | 0.0342

ClC=C(Cl)Cl [trichloroethene]
Conditions | Boiling temperature at pressure P [°C] | mass density [kg/m3]
[1] | 87.10 | –
[2] | – | 1451.2

ClC=C(Cl)Cl [trichloroethene] + CN1CCCC1=O
[3]
Conditions | excess molar enthalpy [kcal/mol]
x1 = 0.0381 | -0.0454
x1 = 0.0886 | -0.106
x1 = 0.1426 | -0.158
x1 = 0.2005 | -0.216
x1 = 0.2675 | -0.276
x1 = 0.3373 | -0.343
x1 = 0.4001 | -0.394
x1 = 0.6547 | -0.343
x1 = 0.7095 | -0.315
x1 = 0.7643 | -0.28
x1 = 0.8186 | -0.23
x1 = 0.873 | -0.176
x1 = 0.9254 | -0.112
x1 = 0.9678 | -0.0504
